In brackets after ≈: the same amount, converted by molar mass. Several values for one entry are separate records, joined by “and”; a condition that tells them apart may be missing. Identical values can stand only once.
Columns and labels:
[1] = system: Cryptococcus neoformans H99 ATCC 208821; experiment: Minimum inhibitory concentration (MIC) test against fungi; type: cell-based; settings: Cryptococcus neoformans, ATCC208821, 72 h, ≥50% growth inhibition by eye, three independent experiments, read-out: MIC
Procedure: (§1) To test the minimum inhibitory concentration (MIC) and minimum effective concentration (MEC) of the drug against fungi.
Cryptococcus neoformans H99 ATCC 208821;
(§2) Test medium: RPMI1640 (containing 0.165 M MOPS, pH7.0)
(§3) On the day of the experiment, the compound in the bottle was dissolved in 100% DMSO to a stock solution concentration of 6.24 mg/mL. Then, the mixture was 10-fold diluted with DMSO to 0.624 mg/mL for use.
(§4) A 2-fold gradient dilution of the compound solution (0.624 mg/mL) was performed using DMSO on a 96-microwell plate (V-bottom) to obtain 100× working solutions (wells 1 to 11). 624, 312, 156, 78, 39, 20, 10, 5, 2.5, 1.25, 0.625 μg/mL. 100% DMSO was used as a positive control (well 12). This was the compound stock plate.
Cryptococcus neoformans H99 ATCC 208821 frozen at −80° C. was streaked on SDA plates and incubated aerobically in a 35±2° C. incubator for 48 hours.
On the day of the experiment, for strains Candida parapsilosis ATCC 22019, Candida albicans ATCC MYA-2876; Candida albicans WX-CA009; Candida glabrata ATCC15126; Candida tropicalis ATCC 750 and Cryptococcus neoformans H99 ATCC 208821, the plates were taken out and the clones on the plates were picked, suspended in normal saline, and then the turbidity of the fungal suspension was adjusted to OD600=0.2 using a turbidimeter. The fungal suspension contained about 3.0×10^6 CFU/mL. Then the turbidity-adjusted fungal suspension was diluted with a test medium to a concentration of about 3.0×10^3 CFU/mL. This was the inoculum.
(§5) 2 μL of 100× working solution from the compound stock plate (prepared in 3.1) was transferred to a round-bottomed 96-well plate (containing 98 μL of test medium), and then 100 μL of fungus inoculum (prepared in 3.2) was added to each well to obtain a MIC test plate. Therefore, the final test concentrations of the compounds were 6.24, 3.12, 1.56, 0.78, 0.39, 0.20, 0.10, 0.05, 0.025, 0.0125, 0.006 μg/mL. 1% DMSO was used as a growth control.
For Cryptococcus neoformans H99 ATCC 208821, all test plates were incubated aerobically in a 35±2° C. incubator for 72 hours.
(§6) After incubation, according to the criteria in Table 1 below, the test plate was observed by eye or microscope to determine the MIC (g/mL) and MEC (g/mL) of the test compound against yeast and mold.

[2] = system: Aspergillus flavus ATCC MYA-1004; experiment: Minimum effective concentration (MEC) test against fungi; type: cell-based; settings: change of hyphae morphology by microscope, 48 hours, three independent experiments
Procedure: as §1
(§7) Aspergillus fumigatus ATCC-MYA-4609; Aspergillus flavus ATCC MYA-1004
as §2, §3, §4
(§8) Aspergillus fumigatus ATCC-MYA-4609; Aspergillus flavus ATCC MYA-1004 frozen at −80° C. were streaked on SDA plates and incubated aerobically in a 30±2° C. incubator for 6 days.
(§9) For strains Aspergillus fumigatus ATCC MYA-4609; Aspergillus flavus ATCC MYA-1004, after taking out the plate, 3 mL of 0.9% normal saline containing 0.1% Tween20 was added to the plate and the spores were gently collected. The spores were counted with a hemocytometer and the spore suspension was adjusted to about 5×10^6 spores/mL. Then the spore suspension was diluted to 0.8 to 1×10^5 spores/mL with a test medium.
as §5
(§10) For mold strains Aspergillus fumigatus ATCC-MYA-4609 and Aspergillus flavus ATCC MYA-1004, all test plates were incubated aerobically in a 35±° C. incubator for 48 hours.
as §6

[3] = system: Aspergillus fumigatus ATCC-MYA-4609; experiment: as above; type: cell-based; settings: change of hyphae morphology by microscope, 48 hours, three independent experiments
Procedure: as §1, §7, §2, §3, §4, §8, §9, §5, §10, §6

[4] = Pharmacokinetic evaluation in rats (IV, PO); type: in vivo, Sprague-Dawley strain rats; settings: Sprague-Dawley, plasma, Rat
From the text: Experimental Purpose: To evaluate the druggability of the compounds by measuring its pharmacokinetic properties in different animal species.
Experimental materials: CD-1 mice, Sprague-Dawley strain rats, beagle dogs, and crab-eating macaques.
Drug preparation: An appropriate amount of sample was weighed and then prepared into a clear or suspended solution.
Experimental procedure: The animal pharmacokinetic characteristics after intravenous injection and oral administration of the compound were tested using a standard protocol. The candidate compound was prepared as a clear solution (for intravenous injection) or a homogeneous suspension (for oral administration) during the experiment and administered to the animals as a single dose. Whole blood samples were collected at 0.083, 0.25, 0.5, 1, 2, 4, 8, and 24 hours, centrifuged at 3200 g for 10 minutes to separate the supernatant to obtain plasma samples. The plasma concentration was quantitatively analyzed by LC-MS/MS analysis method and pharmacokinetic parameters were calculated, such as peak concentration, peak time, clearance rate, half-life, area under the drug-time curve, etc.

[5] = system: Candida albicans ATCC MYA-2876; experiment: Mouse candidemia efficacy model; type: in vivo; settings: female CD-1 mice infected with Candida albicans ATCC MYA-2876
Procedure: Experimental animals: female CD-1 mice, 7 weeks old, 27 to 29 g, n=5 or 8;
microbial pathogen: Candida albicans ATCC MYA-2876;
inoculation level and route: 2.0 to 4.0E+05 CFU/mouse, infected by tail vein injection;
treatment: The treatment started at 1 hour after infection. Firstly, ABT was administered orally, and 2 hours later, the test compound was injected intraperitoneally once a day for 7 days in total, with an administration volume of 10 mL/kg.
Observation indicators: Changes in body weight and mortality within 7 days after infection in each group of mice.

## Nc1ccc(C#CCc2ccc(COc3ccccn3)cc2)cn1 [WX004]
[1]
  MIC: 1.56 µg/mL (≈ 4.95 µM)
[2]
  MEC: 0.39 µg/mL and 0.78 µg/mL
[3]
  MEC: 0.1 µg/mL
[4]; 3 mg/kg, IV, 3 mpk
  AUC: 22 µM·h
  Vd: 1.8 L/kg
  clearance: 7 mL/min/kg
  half-life: 4 h
[4]; 30 mg/kg, PO, 30 mpk
  AUC: 95 µM·h
  Cmax: 10 µM
  Tmax: 1.5 h
  bioavailability: 45%
[5]; 26 mg/kg intraperitoneally once a day for 7 days after 50 mg/kg ABT orally, n=5
  protection from death caused by candidemia: completely protect
[5]; 6 mpk intraperitoneally once a day for 7 days after ABT orally, n=8
  survival rate: 100%

— patent publication US12492169B2, “Aminopyridine compound and application thereof” (priority 2020, dated 2025)
